Read-outs that look alike come from different tables or passages of the source. Numbered stars: 1 amine (or outer) side, 2 acyl side, 3 side chain; on linkers, the order of the positions; unused ones are H or OH. Bridge positions count the residues as written; N and C are the ends. Square brackets hold non-standard residues; d marks the D form. * marks the point of attachment. PEG24 = NCCOCCOCCOCCOCCOCCOCCOCCOCCOCCOCCOCCOCCOCCOCCOCCOCCOCCOCCOCCOCCOCCOCCOCCOCCC(=O)O; C20 diacid = O=C(O)CCCCCCCCCCCCCCCCCCC(=O)*; γGlu = O=C(O)[C@H](CCC(=O)[*:2])N[*:1]; 4Pal = N[C@@H](Cc1ccncc1)C(=O)O; CH2 = C([*:1])[*:2]; βAla = NCCC(=O)O
Columns and labels:
[1] = Pharmacokinetics in male Sprague Dawley rats; assay type: in vivo; conditions: rat, sc, mean, single subcutaneous administration of 200 nMol/kg, plasma; for half-life: read-out: t½ (converted)
Description: The pharmacokinetics of the exemplary analogs are evaluated following a single subcutaneous administration of […] to male Sprague Dawley rats. Blood samples are collected over 120 hours, and resulting individual plasma concentrations are used to calculate pharmacokinetic parameters. Peptide plasma (K3 EDTA) concentrations are determined using a qualified LC/MS method that measured the intact mass of the ANP polypeptide. Each peptide and an analog as an internal standard are extracted from 100% specie specified plasma using methanol with 0.1% formic acid. A Thermo Q-Exactive, High Resolution Instrument, and a Thermo Easy Spray PepMap are combined for LC/MS detection.

rat NPRA = target: T1, rat NPRA (Rattus norvegicus, UniProt P18910); experiment: Rat NPRA cGMP activity assay (HTRF) in HEK293 cells overexpressing NPRA; assay type: cell-based; conditions: assay buffer with 0.1% casein, read-out: cGMP Assay (EC50, pM) w/Casein rNPRA
T1 construct: Full-Length cDNA Cloning and Generation of Cell Lines Overexpressing Natriuretic Peptide Receptors (NPRs); expressed in transfected cells; host or cells: Jump-in T-Rex HEK293 cells, pJTI R4 CMV-TO MCS pA vector, tetracycline induction
T1 sequence (P18910 29-1057): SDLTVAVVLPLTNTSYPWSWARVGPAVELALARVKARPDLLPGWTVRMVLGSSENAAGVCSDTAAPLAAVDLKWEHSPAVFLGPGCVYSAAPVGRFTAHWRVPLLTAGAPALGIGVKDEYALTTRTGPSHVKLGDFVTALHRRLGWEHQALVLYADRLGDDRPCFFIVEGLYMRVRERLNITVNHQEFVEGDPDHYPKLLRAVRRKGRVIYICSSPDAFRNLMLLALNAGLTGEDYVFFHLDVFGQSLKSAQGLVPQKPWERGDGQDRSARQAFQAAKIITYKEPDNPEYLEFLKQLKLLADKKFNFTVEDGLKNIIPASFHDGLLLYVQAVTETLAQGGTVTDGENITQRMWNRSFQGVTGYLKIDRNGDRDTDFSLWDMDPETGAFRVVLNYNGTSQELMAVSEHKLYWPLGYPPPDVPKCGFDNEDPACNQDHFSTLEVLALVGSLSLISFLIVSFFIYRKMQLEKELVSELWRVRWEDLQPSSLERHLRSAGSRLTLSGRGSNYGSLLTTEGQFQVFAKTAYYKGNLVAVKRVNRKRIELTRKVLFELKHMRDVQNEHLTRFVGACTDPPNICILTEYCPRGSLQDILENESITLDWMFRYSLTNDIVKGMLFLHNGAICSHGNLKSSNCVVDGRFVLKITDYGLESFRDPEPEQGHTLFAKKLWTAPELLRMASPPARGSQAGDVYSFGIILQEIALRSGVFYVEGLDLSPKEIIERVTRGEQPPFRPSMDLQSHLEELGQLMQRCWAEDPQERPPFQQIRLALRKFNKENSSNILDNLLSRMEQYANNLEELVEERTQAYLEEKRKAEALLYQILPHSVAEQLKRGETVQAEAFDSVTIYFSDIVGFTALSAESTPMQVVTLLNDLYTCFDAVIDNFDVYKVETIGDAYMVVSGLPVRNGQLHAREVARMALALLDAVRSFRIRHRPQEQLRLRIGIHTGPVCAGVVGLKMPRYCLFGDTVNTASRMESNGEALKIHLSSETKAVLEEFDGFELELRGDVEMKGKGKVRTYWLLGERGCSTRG
In short: (§1)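 cGMP measured by HTRF and scaled between buffer (minimum) and 100 nM amidated rat ANP (maximum). Polypeptides in 10-fold steps from 10 μM to 1 pM, 0.5% DMSO, 0.5 mM IBMX, 40 min at room temperature, on induced NPRA-overexpressing HEK293 cells.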

human NPRA = target: T2, human NPRA (Homo sapiens, UniProt P16066); experiment: Human NPRA cGMP activity assay (HTRF) in HEK293 cells overexpressing NPRA; assay type: cell-based
T2 construct: Full-Length cDNA Cloning and Generation of Cell Lines Overexpressing Natriuretic Peptide Receptors (NPRs); expressed in transfected cells; host or cells: Jump-in T-Rex HEK293 cells, pJTI R4 CMV-TO MCS pA vector, tetracycline induction
T2 sequence (P16066 33-1061): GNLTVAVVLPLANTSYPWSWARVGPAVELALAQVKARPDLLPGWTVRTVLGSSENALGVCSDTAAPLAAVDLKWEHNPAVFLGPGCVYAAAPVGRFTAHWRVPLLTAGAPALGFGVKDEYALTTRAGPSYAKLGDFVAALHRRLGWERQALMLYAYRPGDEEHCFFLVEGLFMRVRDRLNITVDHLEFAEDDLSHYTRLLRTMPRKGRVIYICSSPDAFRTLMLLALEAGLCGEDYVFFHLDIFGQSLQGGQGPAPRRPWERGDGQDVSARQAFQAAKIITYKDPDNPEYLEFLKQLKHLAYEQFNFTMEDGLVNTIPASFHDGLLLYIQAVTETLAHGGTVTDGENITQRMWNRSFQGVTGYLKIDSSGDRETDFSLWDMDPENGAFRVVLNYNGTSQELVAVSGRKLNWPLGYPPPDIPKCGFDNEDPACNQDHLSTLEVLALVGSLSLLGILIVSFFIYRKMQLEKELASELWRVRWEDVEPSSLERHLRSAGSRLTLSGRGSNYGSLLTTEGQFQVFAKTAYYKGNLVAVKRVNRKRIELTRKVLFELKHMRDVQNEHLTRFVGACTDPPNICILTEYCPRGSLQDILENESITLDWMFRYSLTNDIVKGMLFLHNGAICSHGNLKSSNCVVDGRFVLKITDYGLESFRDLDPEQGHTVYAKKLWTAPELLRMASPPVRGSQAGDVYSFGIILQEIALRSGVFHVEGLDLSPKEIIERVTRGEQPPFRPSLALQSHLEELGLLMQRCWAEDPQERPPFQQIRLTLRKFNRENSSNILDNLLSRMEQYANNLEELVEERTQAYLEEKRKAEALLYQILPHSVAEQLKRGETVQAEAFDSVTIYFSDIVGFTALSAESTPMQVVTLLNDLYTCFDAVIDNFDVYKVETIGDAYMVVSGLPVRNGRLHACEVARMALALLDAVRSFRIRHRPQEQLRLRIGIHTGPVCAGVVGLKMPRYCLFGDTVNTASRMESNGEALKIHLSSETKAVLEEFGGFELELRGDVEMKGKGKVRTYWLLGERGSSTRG
In short: as §1

CC[C@H](C)[C@@H]1NC(=O)[C@H](CCCNC(=N)N)NC(=O)[C@H](CC(=O)O)NC(=O)[C@H]([C@@H](C)CC)NC(=O)[C@H](CCCNC(=N)N)NC(=O)[C@H](CCCCN)NC(=O)CNC(=O)[C@H](Cc2ccccc2)NC(=O)[C@@H](NC(=O)[C@H](CO)NC(=O)[C@H](CO)NC(=O)[C@H](CCCNC(=N)N)NC(=O)CCNC(=O)[C@H](CCCCN)NC(=O)[C@H](CCC(=O)O)NC(=O)CCOCCOCCOCCOCCOCCOCCOCCOCCOCCOCCOCCOCCOCCOCCOCCOCCOCCOCCOCCOCCOCCOCCOCCOCCNC(=O)CNC(=O)[C@H](CCCCN)NC(=O)[C@H](CCC(=O)O)NC(=O)[C@H](CCCCN)NC(=O)[C@H](CCC(=O)O)NC(=O)[C@H](CCCCN)NC(=O)[C@H](CCC(=O)O)NC(=O)CC[C@H](NC(=O)CCCCCCCCCCCCCCCCCCC(=O)O)C(=O)O)CSCSC[C@@H](C(=O)N2CCC[C@H]2C(=O)N[C@@H](CO)C(=O)N[C@@H](Cc2ccccc2)C(=O)N[C@@H](CCCNC(=N)N)C(=O)N[C@@H](Cc2c[nH]cn2)C(=O)NCC(=O)N[C@@H](CO)C(=O)N2CCC[C@H]2C(=O)N[C@@H](CO)C(=O)N[C@@H](CO)C(=O)NCC(=O)N[C@@H](C)C(=O)N2CCC[C@H]2C(=O)N2CCC[C@H]2C(=O)N2CCC[C@H]2C(=O)N[C@@H](CO)C(N)=O)NC(=O)CNC(=O)[C@H](CC(C)C)NC(=O)CNC(=O)[C@H](CO)NC(=O)[C@H](CCC(N)=O)NC(=O)[C@H](Cc2c[nH]cn2)NC(=O)CNC1=O [Example 4]
CL/F [1]: 0.0717 mL/min/kg | half-life [1]: 15 h | EC50 (rat NPRA): 22500 pM

{C20 diacid-γGlu}-EKEKEKG[PEG24]EK[βAla]RSSCFGGKIDRIGHQSGLGCPSFRHGSPSSGAPPPS-NH2 (linker 15-31 via CH2) [Example 7]
CL/F [1]: 0.055 mL/min/kg | half-life [1]: 19 h

CC[C@H](C)[C@@H]1NC(=O)[C@H](CCCNC(=N)N)NC(=O)[C@H](CC(=O)O)NC(=O)[C@H]([C@@H](C)CC)NC(=O)[C@H](CCCNC(=N)N)NC(=O)CNC(=O)CNC(=O)[C@H](Cc2ccccc2)NC(=O)[C@@H](NC(=O)[C@H](CO)NC(=O)[C@H](CO)NC(=O)[C@H](CCCNC(=N)N)NC(=O)CCNC(=O)[C@H](CCCCN)NC(=O)[C@H](CCC(=O)O)NC(=O)CNC(=O)[C@H](CCCCN)NC(=O)[C@H](CCC(=O)O)NC(=O)[C@H](CCCCN)NC(=O)[C@H](CCC(=O)O)NC(=O)[C@H](CCCCN)NC(=O)[C@H](CCC(=O)O)NC(=O)CC[C@H](NC(=O)CCCCCCCCCCCCCCCCC(=O)O)C(=O)O)CSCSC[C@@H](C(=O)N2CCC[C@H]2C(=O)N[C@@H](CO)C(=O)N[C@@H](Cc2ccccc2)C(=O)N[C@@H](CCCNC(=N)N)C(=O)N[C@@H](Cc2c[nH]cn2)C(=O)NCC(=O)NCC(=O)N[C@@H](CCCCN)C(=O)N[C@@H](CO)C(=O)N[C@@H](CO)C(=O)NCC(=O)N[C@@H](C)C(=O)N2CCC[C@H]2C(=O)N2CCC[C@H]2C(=O)N2CCC[C@H]2C(=O)N[C@@H](CO)C(N)=O)NC(=O)CNC(=O)[C@H](CC(C)C)NC(=O)CNC(=O)[C@H](CO)NC(=O)[C@H](Cc2ccc(O)cc2)NC(=O)[C@H](Cc2c[nH]cn2)NC(=O)CNC1=O [Example 76]
half-life ([1]; in vivo): 30 h | CL/F [1]: 0.118 mL/min/kg

CC[C@H](C)[C@@H]1NC(=O)[C@H](CCCNC(=N)N)NC(=O)[C@H](CC(=O)O)NC(=O)[C@H]([C@@H](C)CC)NC(=O)[C@H](CCCNC(=N)N)NC(=O)CNC(=O)CNC(=O)[C@H](Cc2ccccc2)NC(=O)[C@@H](NC(=O)[C@H](CO)NC(=O)[C@H](CO)NC(=O)[C@H](CCCNC(=N)N)NC(=O)[C@H](CCCNC(=N)N)NC(=O)[C@H](Cc2ccncc2)NC(=O)[C@H](CO)NC(=O)CNC(=O)[C@H](CCCCN)NC(=O)[C@H](CCC(=O)O)NC(=O)[C@H](CCCCN)NC(=O)[C@H](CCC(=O)O)NC(=O)[C@H](CCCCN)NC(=O)[C@H](CCC(=O)O)NC(=O)CC[C@H](NC(=O)CCCCCCCCCCCCCCCCCCC(=O)O)C(=O)O)CSSC[C@@H](C(=O)N2CCC[C@H]2C(=O)N[C@@H](CO)C(=O)N[C@@H](Cc2ccccc2)C(=O)N[C@@H](CCCNC(=N)N)C(=O)N[C@@H](Cc2c[nH]cn2)C(=O)NCC(=O)NCC(=O)N2CCC[C@H]2C(=O)N[C@@H](CO)C(=O)N[C@@H](CO)C(=O)NCC(=O)N[C@@H](C)C(=O)N2CCC[C@H]2C(=O)N2CCC[C@H]2C(=O)N2CCC[C@H]2C(=O)N[C@@H](CO)C(N)=O)NC(=O)CNC(=O)[C@H](CC(C)C)NC(=O)CNC(=O)[C@H](CO)NC(=O)[C@H](CCC(N)=O)NC(=O)[C@H](Cc2c[nH]cn2)NC(=O)CNC1=O [Example 1]
CL/F [1]: 0.343 mL/min/kg | half-life [1]: 11 h | EC50 (human NPRA; cGMP Assay (EC50, pM) w/BSA hNPRA, assay buffer with 0.1% BSA): 11600 pM

{C20 diacid-γGlu}-EKEKEKG[PEG24]EK[βAla]RSSCFGGKIDRIGHYSGLGCPSFRHGSPSSGAPPPS-NH2 (linker 15-31 via CH2) [Example 6]
CL/F [1]: 0.108 mL/min/kg | half-life [1]: 17 h | EC50 (human NPRA; cGMP Assay (EC50, pM) w/Casein hNPRA, assay buffer with 0.1% casein): 1530 pM

{C20 diacid-γGlu}-EKEKEKG[PEG24]S[4Pal]RRSSCFGGRIDRIGHQSGLGCPSFRHGGKSSGAPPPS-NH2 (linker 15-31 via CH2) [Example 75]
CL/F [1]: 0.182 mL/min/kg | half-life [1]: 17 h

From patent US20240174727A1, “LONG-ACTING NATRIURETIC PEPTIDES AND USES THEREOF” (Eli Lilly and Company, priority 2022, published 2024)
